ChEMBL document CHEMBL5393453, “Compositions and methods of using the same for treatment of neurodegenerative and mitochondrial disease” (2021)
Activity calls are given as the source filed them. No cut-off for these calls is given here.

Legend:
[1] = Cytotoxicity against human HeLa cells expressing YFP parkin assessed as highest safety dose by DAPI staining analysis; type: toxicity, cell-based; conditions: read-out: Activity
[2] = tested on: HeLa; assay: Induction of mitophagy in human HeLa Mito-Keima/YFP-Parkin cells treated with FCCP/oligomycin measured by FACS analysis relative to DMSO; type: functional
[3] = Cytotoxicity against human HeLa cells expressing YFP parkin treated with FCCP/ oligomycin assessed as highest safety dose by DAPI staining analysis; type: toxicity, cell-based; conditions: read-out: Activity
[4] = tested on: HeLa; assay: Induction of mitophagy in human HeLa Mito-Keima/YFP-Parkin cells treated with FCCP/oligomycin measured by FACS analysis; type: functional, cell-based
[5] = Therapy index in human HeLa Mito-Keima/YFP-Parkin cells treated with FCCP/oligomycin assessed as mitophagy safety margin by DAPI staining analysis; type: toxicity, cell-based; conditions: read-out: TI
[6] = tested on: Primary hippocampal neuron; assay: Protection against PFFs induced alpha-synuclein fibril formation in C57BL/6 mouse derived primary hippocampal neurons assessed as reduction in phosphorylated S129 alpha-synuclein level at 0.1 to 25 uM measured after 6 days; type: functional, cell-based; conditions: dose 0.1-25 µM, time 6.0 day
[7] = tested on: Primary hippocampal neuron; assay: Protection against PFFs induced alpha-synuclein fibril formation in C57BL/6 mouse derived primary hippocampal neurons assessed as reduction in phosphorylated S129 alpha-synuclein (250-12) level at 0.1 to 25 uM measured after 6 days; type: functional, cell-based; conditions: dose 0.1-25 µM, time 6.0 day
[8] = tested on: Primary hippocampal neuron; assay: Protection against PFFs induced alpha-synuclein fibril formation in C57BL/6 mouse derived primary hippocampal neurons assessed as reduction in phosphorylated S129 alpha-synuclein monomer level at 0.1 to 25 uM measured after 6 days; type: functional, cell-based; conditions: dose 0.1-25 µM, time 6.0 day
[9] = Cmax in C57BL/6 mouse at 50 mg/kg, po administered as single dose by mass spectrometry; type: ADME, organism-based; design: dose 50 mg/kg, route po; conditions: in vivo
[10] = tested on: Primary hippocampal neuron; assay: Protection against PFFs induced alpha-synuclein fibril formation in C57BL/6 mouse derived primary hippocampal neurons assessed as reduction in phosphorylated S129 alpha-synuclein level at 1.56 to 12.5 uM measured after 6 days; type: functional, cell-based; conditions: dose 1.56-12.5 µM, time 6.0 day
[11] = tested on: HeLa; assay: Induction of mitophagy in human HeLa Mito-Keima cells treated with FCCP/oligomycin measured by FACS analysis; type: functional, cell-based
[12] = Cmax in C57BL/6 mouse at 10 mg/kg, po administered as single dose by mass spectrometry; type: ADME, organism-based; design: dose 10 mg/kg, route po; conditions: in vivo
[13] = AUClast in C57BL/6 mouse at 10 mg/kg, po administered as single dose by mass spectrometry; type: ADME, organism-based; design: dose 10 mg/kg, route po; conditions: in vivo
[14] = AUClast in C57BL/6 mouse at 50 mg/kg, po administered as single dose by mass spectrometry; type: ADME, organism-based; design: dose 50 mg/kg, route po; conditions: in vivo
[15] = tested on: HeLa; assay: Induction of mitophagy in human HeLa YFP-Parkin cells treated with FCCP/oligomycin assessed as cells with parkin recruited to mitochondria at 60 mins by FACS analysis; type: functional, cell-based; conditions: 1 h
[16] = tested on: Mus musculus; assay: Protection against kidney fibrosis in cisplatin-challenged C57BL/6 mouse assessed as reduction in Gdf15 expression at 6.25 to 50 mg/kg, po administered once a day for 3 days; type: functional, organism-based; conditions: dose 6.25-50 mg/kg, time 3.0 day
[17] = Cmax in C57BL/6 mouse at 100 mg/kg, po administered as single dose by mass spectrometry; type: ADME, organism-based; design: dose 100 mg/kg, route po; conditions: in vivo
[18] = tested on: Mus musculus; assay: Protection against kidney fibrosis in cisplatin-challenged C57BL/6 mouse assessed as reduction in Tnfrsf12a expression at 6.25 to 50 mg/kg, po administered once a day for 3 days; type: functional, organism-based; conditions: dose 6.25-50 mg/kg, time 3.0 day
[19] = AUClast in C57BL/6 mouse at 25 mg/kg, po administered as single dose by mass spectrometry; type: ADME, organism-based; design: dose 25 mg/kg, route po; conditions: in vivo
[20] = tested on: Mus musculus; assay: Protection against PFFs induced alpha-synuclein fibril formation in C57BL/6 mouse assessed as reduction in phosphorylated S129 alpha-synuclein (250-12) level at 6.25 to 50 mg/kg, po administered twice daily; type: functional, organism-based; conditions: dose 6.25-50 mg/kg
[21] = tested on: Mus musculus; assay: Protection against PFFs induced alpha-synuclein fibril formation in C57BL/6 mouse assessed as reduction in phosphorylated S129 alpha-synuclein monomer level at 6.25 to 50 mg/kg, po administered twice daily; type: functional, organism-based; conditions: dose 6.25-50 mg/kg
[22] = tested on: Mus musculus; assay: Protection against kidney fibrosis in cisplatin-challenged C57BL/6 mouse assessed as rescue of KIM-1 at 6.25 to 50 mg/kg, po administered once a day for 3 days; type: functional, organism-based; conditions: dose 6.25-50 mg/kg, time 3.0 day
[23] = tested on: Mus musculus; assay: Protection against PFFs induced alpha-synuclein fibril formation in C57BL/6 mouse assessed as reduction in phosphorylated S129 alpha-synuclein level at 6.25 to 50 mg/kg, po administered twice daily; type: functional, organism-based; conditions: dose 6.25-50 mg/kg
[24] = AUClast in C57BL/6 mouse at 100 mg/kg, po administered as single dose by mass spectrometry; type: ADME, organism-based; design: dose 100 mg/kg, route po; conditions: in vivo
[25] = Cmax in C57BL/6 mouse at 25 mg/kg, po administered as single dose by mass spectrometry; type: ADME, organism-based; design: dose 25 mg/kg, route po; conditions: in vivo
[26] = Cytotoxicity against human HeLa cells expressing YFP parkin in presence of FCCP/oligomycin at 25 uM assessed as maximum cell death by DAPI staining analysis relative to control; type: toxicity, cell-based

Structure (SMILES): Fc1ccc2c(c1)CC[C@H](N1CCOCC1)[C@H]2Nc1ncnc2[nH]c(C3CC3)cc12 (single isomer, unassigned)
- MNTC [1]: 25 µM
- fold change (FC) [2]: 5.24
- MNTC [3]: 2.8 µM

Structure (SMILES): FC(F)(F)c1cc2c(N[C@@H]3c4ccccc4CC[C@H]3N3CCOCC3)ncnc2[nH]1 (racemic)
- MNTC [1]: 13.9 µM
- fold change (FC) [2]: 9.53

Structure (SMILES): COC1CN([C@@H]2CCc3ccccc3[C@H]2Nc2ncnc3[nH]c(C(F)(F)F)cc23)C1
- MNTC [1]: 25 µM
- EC50 [4]: 28800 nM

Structure (SMILES): FC(F)(F)c1cc2c(N[C@@H]3c4ccccc4CC[C@@H]3N3CCOCC3)ncnc2[nH]1
- MNTC [1]: 16.7 µM
- selectivity ratio [5]: < 10

Structure (SMILES): COC1CN([C@H]2CCc3ccccc3[C@@H]2Nc2ncnc3[nH]c(C(F)(F)F)cc23)C1
- Activity [6]: Active
- Activity [7]: Active
- MNTC [1]: 8.3 µM
- MNTC [3]: 8.3 µM
- Activity [8]: Active

Structure (SMILES): FC(F)(F)c1cc2c(NC3CCCc4ccccc43)ncnc2[nH]1 (single isomer, unassigned)
- Cmax [9]: 6.98 µM
- Activity [10]: Active
- EC50 [11]: 371 nM
- Cmax [12]: 0.49 µM
- fold change (FC) [2]: 4.43
- AUC(0-t) [13]: 1.79 µM·h
- AUC(0-t) [14]: 30.5 µM·h
- EC50 [15]: 1740 nM

Structure (SMILES): FC(F)(F)c1cc2c(N[C@H]3c4ccccc4CC[C@@H]3N3CCOCC3)ncnc2[nH]1 (single isomer, unassigned)
- Activity [10]: Active
- fold change (FC) [2]: 9.78
- selectivity ratio [5]: > 30

Structure (SMILES): FC(F)(F)c1cc2c(N[C@H]3c4ccccc4CC[C@@H]3N3C[C@H]4COC[C@H]4C3)ncnc2[nH]1 (single isomer, unassigned)
- MNTC [1]: 25 µM
- fold change (FC) [2]: 5.44
- MNTC [3]: 2.8 µM

Structure (SMILES): FC(F)(F)c1cc2c(N[C@@H]3c4ccccc4CC[C@H]3N3CCOCC3)ncnc2[nH]1 (single isomer, unassigned)
- fold change (FC) [2]: 7.78

Structure (SMILES): c1ccc2c(c1)OC[C@H](C1CCOCC1)[C@H]2Nc1ncnc2[nH]c(C3CC3)cc12 (single isomer, unassigned)
- Activity [6]: Active
- Activity [7]: Active
- MNTC [1]: 25 µM
- MNTC [3]: 21.5 µM
- Activity [8]: Active

Structure (SMILES): FC(F)(F)c1cc2c(N[C@H]3c4ccccc4CC[C@@H]3N3CC4(CCOCC4)C3)ncnc2[nH]1 (single isomer, unassigned)
- fold change (FC) [2]: 3.95

Structure (SMILES): C[C@H]1CN([C@H]2CCc3ccccc3[C@@H]2Nc2ncnc3[nH]c(C(F)(F)F)cc23)CCO1 (single isomer, unassigned)
- Activity [6]: Active
- Activity [7]: Active
- MNTC [1]: 25 µM
- MNTC [3]: 9.1 µM
- Activity [8]: Active

Structure (SMILES): Fc1ccc2c(c1)CC[C@H](N1CCOCC1)[C@H]2Nc1ncnc2[nH]c(C(F)(F)F)cc12 (single isomer, unassigned)
- MNTC [1]: 25 µM
- fold change (FC) [2]: 5.11
- MNTC [3]: 8.3 µM

Structure (SMILES): C[C@@H]1CN([C@@H]2COc3ccccc3[C@H]2Nc2ncnc3[nH]c(C(F)(F)F)cc23)C[C@H](C)O1
- MNTC [1]: 25 µM
- MNTC [3]: 2.3 µM

Structure (SMILES): c1ccc2c(c1)OC[C@H](N1CCOCC1)[C@H]2Nc1ncnc2[nH]c(C3CC3)cc12
- Cmax [9]: 9.21 µM
- Activity [16]: Active
- Activity [6]: Active
- Cmax [17]: 19.4 µM
- Activity [18]: Active
- AUC(0-t) [19]: 1.91 µM·h
- EC50 [11]: 153 nM
- Activity [7]: Active
- MNTC [1]: 25 µM
- Cmax [12]: 0.35 µM
- Activity [20]: Active
- Activity [21]: Active
- Activity [22]: Active
- AUC(0-t) [13]: 0.51 µM·h
- AUC(0-t) [14]: 17.3 µM·h
- MNTC [3]: 25 µM
- EC50 [15]: 1150 nM
- Activity [8]: Active
- Activity [23]: Active
- AUC(0-t) [24]: 85.6 µM·h
- Cmax [25]: 1.15 µM

Structure (SMILES): C[C@@H]1CN([C@@H]2COc3ccccc3[C@H]2Nc2ncnc3[nH]c(C4CC4)cc23)C[C@H](C)O1
- MNTC [1]: 25 µM
- MNTC [3]: 1.2 µM

Structure (SMILES): Fc1ccc2c(c1)CC[C@H](N1C[C@H]3COC[C@H]3C1)[C@H]2Nc1ncnc2[nH]c(C3CC3)cc12
- MNTC [1]: 25 µM
- MNTC [3]: 10.3 µM

Structure (SMILES): COC[C@H]1CCN([C@H]2COc3ccccc3[C@@H]2Nc2ncnc3[nH]c(C4CC4)cc23)C1
- MNTC [1]: 25 µM
- MNTC [3]: 3.6 µM

Structure (SMILES): COC1CN([C@@H]2COc3ccccc3[C@H]2Nc2ncnc3[nH]c(C(F)(F)F)cc23)C1
- Activity [6]: Active
- Activity [7]: Active
- MNTC [1]: 25 µM
- MNTC [3]: 21.4 µM
- Activity [8]: Active

Structure (SMILES): Fc1ccc2c(c1)CC[C@@H](N1CCOCC1)[C@@H]2Nc1ncnc2[nH]c(C(F)(F)F)cc12 (single isomer, unassigned)
- MNTC [1]: 25 µM
- fold change (FC) [2]: 4.67
- MNTC [3]: 25 µM

Structure (SMILES): FC(F)(F)c1cc2c(N[C@H]3c4ccccc4CC[C@@H]3N3CC4(COC4)C3)ncnc2[nH]1
- EC50 [4]: 300 nM

Structure (SMILES): COC1CN([C@@H]2COc3ccccc3[C@H]2Nc2ncnc3[nH]c(C4CC4)cc23)C1
- MNTC [1]: 25 µM
- MNTC [3]: 25 µM
- Emax at 25 µM [26]: 22.5%
